This note sets out measurements from ChEMBL document CHEMBL3860093, “Cyclic peptide-based potent and selective SIRT1/2 dual inhibitors harboring Nε-thioacetyl-lysine” (Bioorg Med Chem Lett, 2016).

A short description of data set [1]: Stability of compound assessed as Streptomyces griseus pronase-mediated compound hydrolysis up to 6 mins by HPLC analysis. The conditions noted are these: 0.1 h. The class given is ADME.
Data set [2] addresses T1, NAD-dependent protein deacetylase sirtuin-3, mitochondrial (Homo sapiens, UniProt Q9NTG7).
T1 sequence (Q9NTG7 whole entry): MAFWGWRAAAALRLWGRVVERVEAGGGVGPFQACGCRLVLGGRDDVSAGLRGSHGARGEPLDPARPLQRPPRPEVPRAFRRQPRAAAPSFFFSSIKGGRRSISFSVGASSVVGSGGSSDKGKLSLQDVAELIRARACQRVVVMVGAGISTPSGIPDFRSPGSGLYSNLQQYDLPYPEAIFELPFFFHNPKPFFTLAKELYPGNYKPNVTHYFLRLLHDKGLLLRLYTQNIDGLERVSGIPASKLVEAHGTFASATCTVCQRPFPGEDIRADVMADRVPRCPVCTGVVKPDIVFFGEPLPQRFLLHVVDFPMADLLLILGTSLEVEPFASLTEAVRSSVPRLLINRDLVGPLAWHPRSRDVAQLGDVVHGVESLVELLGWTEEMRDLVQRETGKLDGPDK
Kind of data set: Inhibition of recombinant human His6-tagged SIRT3 using H2N-HK-[Nepsilon-acetyl-lysine]-LM-COOH as substrate incubated for 10 mins in presence of beta-NAD+ by HPLC based assay.

Data set [3] has as its target T2, NAD-dependent protein deacetylase sirtuin-2 (Homo sapiens, UniProt Q8IXJ6).
T2 sequence (Q8IXJ6 whole entry): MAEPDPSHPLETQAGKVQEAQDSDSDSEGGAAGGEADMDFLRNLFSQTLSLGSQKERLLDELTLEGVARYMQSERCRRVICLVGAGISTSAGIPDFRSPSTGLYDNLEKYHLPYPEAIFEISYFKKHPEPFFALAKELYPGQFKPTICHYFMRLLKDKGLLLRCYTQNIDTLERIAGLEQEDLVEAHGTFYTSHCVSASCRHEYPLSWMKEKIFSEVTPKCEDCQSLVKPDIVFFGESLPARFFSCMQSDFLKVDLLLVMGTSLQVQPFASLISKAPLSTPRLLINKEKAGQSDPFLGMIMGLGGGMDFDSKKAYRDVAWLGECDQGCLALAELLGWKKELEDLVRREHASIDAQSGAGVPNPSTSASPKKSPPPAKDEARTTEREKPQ
Kind of data set: Inhibition of recombinant human His6-tagged SIRT2 using H2N-HK-[Nepsilon-acetyl-lysine]-LM-COOH as substrate incubated for 12 mins in presence of beta-NAD+ by HPLC based assay.

Data set [4] concerns the target T3, NAD-dependent protein deacetylase sirtuin-1 (Homo sapiens, UniProt Q96EB6).
T3 sequence (Q96EB6 whole entry): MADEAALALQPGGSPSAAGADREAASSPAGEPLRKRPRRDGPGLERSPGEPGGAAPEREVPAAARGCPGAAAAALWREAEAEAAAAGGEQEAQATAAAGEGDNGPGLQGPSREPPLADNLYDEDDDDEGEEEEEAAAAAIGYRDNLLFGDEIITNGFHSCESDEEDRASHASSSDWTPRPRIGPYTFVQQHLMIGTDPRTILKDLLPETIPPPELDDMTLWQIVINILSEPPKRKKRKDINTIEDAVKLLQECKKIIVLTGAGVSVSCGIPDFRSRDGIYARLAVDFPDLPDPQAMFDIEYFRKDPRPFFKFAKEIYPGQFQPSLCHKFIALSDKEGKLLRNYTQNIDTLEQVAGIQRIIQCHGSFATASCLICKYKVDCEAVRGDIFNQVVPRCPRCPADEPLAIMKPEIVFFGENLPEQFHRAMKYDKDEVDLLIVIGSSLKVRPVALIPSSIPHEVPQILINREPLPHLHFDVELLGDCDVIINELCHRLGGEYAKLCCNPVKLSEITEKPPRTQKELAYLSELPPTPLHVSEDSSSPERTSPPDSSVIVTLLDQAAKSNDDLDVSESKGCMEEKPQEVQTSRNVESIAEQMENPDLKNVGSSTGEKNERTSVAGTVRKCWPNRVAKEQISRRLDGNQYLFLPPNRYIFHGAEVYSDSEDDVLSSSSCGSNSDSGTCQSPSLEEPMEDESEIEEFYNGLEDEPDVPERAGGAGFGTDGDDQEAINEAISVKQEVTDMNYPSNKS
Kind of data set: Inhibition of recombinant human GST or His6-tagged SIRT1 using H2N-HK-[Nepsilon-acetyl-lysine]-LM-COOH as substrate incubated for 10 mins in presence of beta-NAD+ by HPLC based assay.

For data set [5], the species on record is Homo sapiens. Kind of data set: Selectivity ratio of IC50 for recombinant human His6-tagged SIRT3 to IC50 for recombinant human GST or His6-tagged SIRT1.
Data set [6] is filed under the species Homo sapiens. Kind of data set: Selectivity ratio of IC50 for recombinant human His6-tagged SIRT3 to IC50 for recombinant human His6-tagged SIRT2.
Data set [7] deals with NAD-dependent protein deacylase sirtuin-5, mitochondrial (Homo sapiens, UniProt Q9NXA8). Kind of data set: Inhibition of recombinant human GST-tagged SIRT5 using CH3CONH-AR-[Nepsilon-succinyl-lysine]-ST-CONH2 as substrate incubated for 5 mins in presence of beta-NAD+ by HPLC based assay.
Sequence of NAD-dependent protein deacylase sirtuin-5, mitochondrial (Q9NXA8 whole entry): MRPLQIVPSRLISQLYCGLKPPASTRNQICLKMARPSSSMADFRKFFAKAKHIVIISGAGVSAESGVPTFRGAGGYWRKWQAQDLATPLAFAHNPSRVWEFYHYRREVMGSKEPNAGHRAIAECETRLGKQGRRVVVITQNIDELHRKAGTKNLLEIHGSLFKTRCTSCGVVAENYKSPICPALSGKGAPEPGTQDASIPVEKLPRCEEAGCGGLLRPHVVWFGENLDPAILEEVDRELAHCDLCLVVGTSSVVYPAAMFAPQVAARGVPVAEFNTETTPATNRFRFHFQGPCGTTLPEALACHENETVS
For data set [8], the target named is NAD-dependent protein deacylase sirtuin-6 (Homo sapiens, UniProt Q8N6T7). Kind of data set: Inhibition of recombinant human His6-tagged SIRT6 using H2N-EALPK-[Nepsilon-myristoyl-lysine]-TGGPQ-CONH2 as substrate incubated for 12 mins in presence of beta-NAD+ by HPLC based assay.
Sequence of NAD-dependent protein deacylase sirtuin-6 (Q8N6T7 whole entry): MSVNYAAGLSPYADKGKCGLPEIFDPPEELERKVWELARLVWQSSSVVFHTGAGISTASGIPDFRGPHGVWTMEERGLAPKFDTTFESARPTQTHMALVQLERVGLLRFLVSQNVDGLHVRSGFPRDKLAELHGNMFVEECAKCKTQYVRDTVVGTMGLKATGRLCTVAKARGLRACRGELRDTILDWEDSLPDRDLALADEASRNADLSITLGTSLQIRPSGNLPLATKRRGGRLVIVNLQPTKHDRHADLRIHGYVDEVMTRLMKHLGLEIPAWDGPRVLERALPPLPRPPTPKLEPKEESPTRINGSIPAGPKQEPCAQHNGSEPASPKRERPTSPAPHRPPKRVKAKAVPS
A short description of data set [9]: Stability of compound assessed as Streptomyces griseus pronase-mediated compound hydrolysis up to 60 mins by HPLC analysis. Type of data set: ADME. The conditions noted are these: 1 h.
Data set [10] addresses T4, NAD-dependent protein deacetylase sirtuin-1 (Homo sapiens) (UniProt Q96EB6).
T4 sequence (whole entry): T3 sequence (Q96EB6 whole entry)
Kind of data set: Inhibition of SIRT1 in human HCT116 cells assessed as increase in p53 acetylation at lysine-382 residue after 8 hrs by Western blot assay. Type of data set: cell-based. Particulars: HCT-116.

The nature of data set [11]: Stability of compound assessed as Streptomyces griseus pronase-mediated compound hydrolysis up to 40 mins by HPLC analysis. Type of data set: ADME.

Where only a bound is given, the exact number is not on record here.

For H-HKK(Ac)LM-OH, in data set [1], the Stability result was “Unstable”.

One may read the IC50 as the concentration needed to halve the response being measured. With `CN(C)CCCCC(=O)Nc1ccc(NC(=S)NC(=O)c2ccc(C(C)(C)C)cc2)cc1`, the half-maximal inhibitory concentration (IC50) in data set [2] is 25.7 µM.

`CC(C(=O)Nc1cccc(/N=C/c2c(O)ccc3ccccc23)c1)c1ccccc1` (stereo unspecified) [SALERMIDE]: the values for the IC50 in data set [3] and in data set [4] were 20.3 µM and 37.5 µM, respectively.

As for `CC(=S)NCCCC[C@@H]1NC(=O)[C@H](Cc2csc3ccccc23)NC(=O)CCCCCCC(=O)NCC[C@@H](C(N)=O)NC1=O`, the Ratio IC50 in the data set listed under Homo sapiens [5] is 7.9; in the data set listed under Homo sapiens [6] it was 8.6. The IC50 is 10 µM in data set [2]; 1.16 µM in [3]; 1.27 µM in data set [4]; above 2000 µM in data set [7]; above 1000 µM in data set [8].

Take `CCCC[C@@H]1NC(=O)CCCCCCC(=O)NC[C@@H](C(N)=O)NC(=O)[C@H](CCCCNC(C)=S)NC1=O`: the results for the Ratio IC50 in the data set filed under Homo sapiens [5] and in the data set listed under Homo sapiens [6] were 2.4 and 5.9, respectively. The IC50 came to 1.06 µM in [2], 0.18 µM in data set [3] and 0.45 µM in [4].

On to `CC(=S)NCCCC[C@@H]1NC(=O)[C@H](Cc2ccc3ccccc3c2)NC(=O)CCCCCCC(=O)NCC[C@@H](C(N)=O)NC1=O`, for which the concentration for half-maximal inhibition (IC50) in data set [3] was 2.4 µM; in data set [4], 1.1 µM; in data set [7], above 6000 µM; in [8], above 4000 µM. For the same molecule, the Stability result in [9] is “Stable”.

For `CC(=S)NCCCC[C@@H]1NC(=O)[C@H](Cc2ccc3ccccc3c2)NC(=O)CCCCCCC(=O)NC[C@@H](C(N)=O)NC1=O`, the figures for the Ratio IC50 in the data set listed under Homo sapiens [5] and in the data set listed under Homo sapiens [6] were 4.9 and 2.3, respectively. Besides, the half-inhibitory concentration (IC50) came to 3.5 µM in [2], 1.5 µM in data set [3] and 0.71 µM in data set [4].

Turning to `CC(=S)NCCCC[C@@H]1NC(=O)CNCCC(=O)NCCCC[C@@H](C(N)=O)NC1=O`, the Ratio IC50 in the data set listed under Homo sapiens [5] stood at 2.6; in the data set filed under Homo sapiens [6], 2.3. Besides, the IC50 in [2] stood at 56.9 µM; in [3] it was 24.3 µM; in data set [4], 22 µM.

Regarding `CC(=S)NCCCC[C@@H]1NC(=O)[C@H](Cc2ccc3ccccc3c2)NC(=O)CCCCCCC(=O)NCCC[C@@H](C(N)=O)NC1=O`, the figures for the Ratio IC50 in the data set filed under Homo sapiens [5] and in the data set listed under Homo sapiens [6] were 17.8 and 2.7, respectively. Moreover, the IC50 in data set [2] turned out to be 3.2 µM; in data set [3], 1.2 µM; in [4], 0.18 µM.

In the case of `CCCC[C@@H]1NC(=O)CCCCCCC(=O)NCCCC[C@@H](C(N)=O)NC(=O)[C@H](CCCCNC(C)=S)NC1=O`, the Ratio IC50 is 2.1 in the data set listed under Homo sapiens [5] and 2 in the data set listed under Homo sapiens [6]. The IC50 in [2] came to 0.47 µM; in [3] it was 0.24 µM; in data set [4] it was 0.22 µM.

For the molecule `CCCC[C@@H]1NC(=O)CCCCCCC(=O)NCCC[C@@H](C(N)=O)NC(=O)[C@H](CCCCNC(C)=S)NC1=O`, the IC50 in data set [2] amounted to 1.82 µM; in data set [3], 0.22 µM; in data set [4], 0.27 µM. In [9], the Stability result is reported as “Stable”. The inhibition result in [10] is “Dose-dependent effect”.

In the case of `CCCC[C@@H]1NC(=O)CCCCCCC(=O)NCC[C@@H](C(N)=O)NC(=O)[C@H](CCCCNC(C)=S)NC1=O`, the Ratio IC50 in the data set filed under Homo sapiens [5] is 1.8; in the data set listed under Homo sapiens [6] it was 3.5. Moreover, the results for the IC50 in data set [2], in data set [3] and in data set [4] were 1.48 µM, 0.42 µM and 0.82 µM, respectively.

For `CC(=S)NCCCC[C@@H]1NC(=O)[C@H](Cc2csc3ccccc23)NC(=O)CCCCCCC(=O)NCCCC[C@@H](C(N)=O)NC1=O`, the Ratio IC50 in the data set filed under Homo sapiens [5] is 7.6; in the data set listed under Homo sapiens [6], 4.3. Also, the IC50 in data set [2] is 3.82 µM; in [3], 0.89 µM; in [4], 0.5 µM; in [7] it was above 200 µM; in [8], above 1000 µM. For the same molecule, the Stability entry in data set [11] was “Stable”.

On to `CC(=S)NCCCC[C@@H]1NC(=O)[C@H](Cc2csc3ccccc23)NC(=O)CCCCCCC(=O)NC[C@@H](C(N)=O)NC1=O`, for which the Ratio IC50 amounted to 2.1 in the data set listed under Homo sapiens [5] and 0.6 in the data set filed under Homo sapiens [6]. Further, the IC50 was 2.51 µM in data set [2], 4.24 µM in data set [3] and 1.21 µM in [4].

Take `CC(=S)NCCCC[C@@H]1NC(=O)[C@H](Cc2ccc3ccccc3c2)NC(=O)CCCCCCC(=O)NCCCC[C@@H](C(N)=O)NC1=O`: the Ratio IC50 in the data set filed under Homo sapiens [5] was found to be 3.4; in the data set listed under Homo sapiens [6], 1.4. The 50% inhibitory concentration (IC50) in data set [2] was 1.94 µM; in data set [3] it was 1.4 µM; in data set [4], 0.57 µM.

For the molecule `CC(=S)NCCCC[C@@H]1NC(=O)[C@H](Cc2csc3ccccc23)NC(=O)CCCCCCC(=O)NCCC[C@@H](C(N)=O)NC1=O`, the Ratio IC50 was 4.7 in the data set listed under Homo sapiens [5] and 6.6 in the data set filed under Homo sapiens [6]. Further, the IC50 in data set [2] is 3.18 µM; in data set [3], 0.48 µM; in data set [4], 0.68 µM; in data set [7], above 300 µM; in data set [8], above 2000 µM.

For `CC(=S)NCCCC[C@@H]1NC(=O)CNC(=O)CCCCCCC(=O)NCCCC[C@@H](C(N)=O)NC1=O`, the Ratio IC50 in the data set filed under Homo sapiens [5] and in the data set filed under Homo sapiens [6] was 0.9 throughout. Also, the results for the IC50 in [2], in data set [3] and in [4] were 3.39 µM, 3.9 µM and 3.84 µM, respectively.
